Source: ChEMBL document CHEMBL3272121, “Hypolipidemic analogues of ethyl 4-benzyloxybenzoate” (J Med Chem, 1977)

Key:
Rattus norvegicus [1] = assay: Toxicity in CFY Sprague-Dawley rat assessed as body weight gain at 0.25% dietary level administered for 7 days relative to control; assay type: organism-based; conditions: in vivo, po, 168 h
Rattus norvegicus [2] = assay: Toxicity in CFY Sprague-Dawley rat assessed as relative liver weight at 0.25% dietary level administered for 7 days relative to control; assay type: organism-based; conditions: in vivo, po, 168 h
Rattus norvegicus [3] = assay: Hypolipidemic activity in CFY Sprague-Dawley rat assessed as liver lipid per gm of liver at 0.25% dietary level administered for 7 days relative to control; assay type: functional
Rattus norvegicus [4] = assay: Hypolipidemic activity in CFY Sprague-Dawley rat assessed as serum triglyceride level at 0.25% dietary level administered for 7 days relative to control; assay type: functional
Rattus norvegicus [5] = assay: Hypolipidemic activity in CFY Sprague-Dawley rat assessed as serum cholesterol level at 0.25% dietary level administered for 7 days relative to control; assay type: functional

CCOC(=O)C(C)(C)Oc1ccc(Cl)cc1 [CLOFIBRATE] showed an Activity (Rattus norvegicus [1]) of 0%, an Activity (Rattus norvegicus [2]) of 32% and an Activity (Rattus norvegicus [3]) of 3%. For the same molecule, the Activity (Rattus norvegicus [4]) was -31% and the Activity (Rattus norvegicus [5]) was -23%.

Molecule COC(=O)Cc1ccc(OCc2ccccc2)c(OC)c1 has an Activity (Rattus norvegicus [1]) of -68%, an Activity (Rattus norvegicus [2]) of 0% and an Activity (Rattus norvegicus [3]) of 8%. The Activity (Rattus norvegicus [4]) was -45% and the Activity (Rattus norvegicus [5]) was -30%.

For CCOC(=O)c1ccc(OCc2ccc(Cl)c(Cl)c2)cc1, the Activity (Rattus norvegicus [1]) was -5%, the Activity (Rattus norvegicus [2]) was 10% and the Activity (Rattus norvegicus [4]) was 5%. The Activity (Rattus norvegicus [5]) was -7%.

Molecule CCOC(=O)CCc1ccc(OCc2cccc(F)c2)cc1 has an Activity (Rattus norvegicus [1]) of 12%, an Activity (Rattus norvegicus [2]) of 7% and an Activity (Rattus norvegicus [4]) of 57%. It also gave an Activity (Rattus norvegicus [5]) of -11%.

In the case of CCOC(=O)Cc1ccc(OCc2cccc(OC)c2OC)cc1, the Activity (Rattus norvegicus [1]) is reported as 12%, the Activity (Rattus norvegicus [2]) is reported as 20% and the Activity (Rattus norvegicus [4]) is reported as -25%. The Activity (Rattus norvegicus [5]) was 1%.

CCOC(=O)CCCc1ccc(OCc2ccccc2)cc1 showed an Activity (Rattus norvegicus [1]) of -57%, an Activity (Rattus norvegicus [2]) of 9% and an Activity (Rattus norvegicus [4]) of -59%. The Activity (Rattus norvegicus [5]) was -10%.

With CCOC(=O)c1ccc(COc2ccc(C#N)cc2)cc1 the Activity (Rattus norvegicus [1]) was -46%, the Activity (Rattus norvegicus [2]) was 20% and the Activity (Rattus norvegicus [4]) was -21%. For the same molecule, the Activity (Rattus norvegicus [5]) was -12%.

Molecule CCOC(=O)c1ccc(COc2ccc(C)c(C)c2)cc1 has an Activity (Rattus norvegicus [1]) of -1%, an Activity (Rattus norvegicus [2]) of 10% and an Activity (Rattus norvegicus [4]) of 109%. For the same molecule, the Activity (Rattus norvegicus [5]) was 3%.

In the case of O=C([O-])c1ccc(OCc2ccccc2)cc1.[K+], the Activity (Rattus norvegicus [1]) is reported as -12%, the Activity (Rattus norvegicus [2]) is reported as 0% and the Activity (Rattus norvegicus [4]) is reported as -57%. It also gave an Activity (Rattus norvegicus [5]) of -20%.

With N#Cc1ccc(OCc2ccccc2)cc1 the Activity (Rattus norvegicus [1]) was -14%, the Activity (Rattus norvegicus [2]) was 8% and the Activity (Rattus norvegicus [4]) was -31%. It also gave an Activity (Rattus norvegicus [5]) of 7%.

Molecule CCCCCCCCCCCCc1ccc(OCc2ccccc2)cc1 has an Activity (Rattus norvegicus [1]) of 9%, an Activity (Rattus norvegicus [2]) of 8% and an Activity (Rattus norvegicus [4]) of -37%. For the same molecule, the Activity (Rattus norvegicus [5]) was 2%.

In the case of N#Cc1ccc(OCc2ccc(Cl)c(Cl)c2)cc1, the Activity (Rattus norvegicus [1]) is reported as -9%, the Activity (Rattus norvegicus [2]) is reported as 18% and the Activity (Rattus norvegicus [3]) is reported as 8%. The Activity (Rattus norvegicus [4]) was -6% and the Activity (Rattus norvegicus [5]) was -19%.

CCOC(=O)c1ccc(OCc2ccc([N+](=O)[O-])cc2)cc1 was tested, and the Activity (Rattus norvegicus [1]) was -15%, the Activity (Rattus norvegicus [2]) was -2% and the Activity (Rattus norvegicus [4]) was -28%. For the same molecule, the Activity (Rattus norvegicus [5]) was -12%.

With COC(=O)CCc1ccc(OCc2ccccc2)cc1 the Activity (Rattus norvegicus [1]) was -3%, the Activity (Rattus norvegicus [2]) was 18% and the Activity (Rattus norvegicus [3]) was 3%. It also gave an Activity (Rattus norvegicus [4]) of -45% and an Activity (Rattus norvegicus [5]) of -16%.

OCc1ccc(OCc2ccccc2)cc1 showed an Activity (Rattus norvegicus [1]) of 11%, an Activity (Rattus norvegicus [2]) of 15% and an Activity (Rattus norvegicus [4]) of -45%. The Activity (Rattus norvegicus [5]) was -3%.

With O=C(OCc1ccccc1)c1ccc(OCc2ccccc2)cc1 the Activity (Rattus norvegicus [1]) was 6%, the Activity (Rattus norvegicus [2]) was 6% and the Activity (Rattus norvegicus [3]) was 7%. The Activity (Rattus norvegicus [4]) was -50% and the Activity (Rattus norvegicus [5]) was -21%.

Work on CCOC(=O)c1ccc(COc2ccc(Cl)cc2)cc1 yielded an Activity (Rattus norvegicus [1]) of -15%, an Activity (Rattus norvegicus [2]) of 42% and an Activity (Rattus norvegicus [4]) of 7%. For the same molecule, the Activity (Rattus norvegicus [5]) was -13%.

Work on CCOC(=O)Cc1ccc(OCc2ccccc2F)cc1 yielded an Activity (Rattus norvegicus [1]) of -20%, an Activity (Rattus norvegicus [2]) of -22% and an Activity (Rattus norvegicus [3]) of -1%. It also gave an Activity (Rattus norvegicus [4]) of -64% and an Activity (Rattus norvegicus [5]) of -29%.

Work on O=C([O-])c1ccc(OCc2ccccc2)cc1.O=C([O-])c1ccc(OCc2ccccc2)cc1.[Ca+2] yielded an Activity (Rattus norvegicus [1]) of -12%, an Activity (Rattus norvegicus [2]) of 0% and an Activity (Rattus norvegicus [4]) of -53%. It also gave an Activity (Rattus norvegicus [5]) of -8%.

CCOC(=O)c1ccc(OCc2ccccc2Cl)cc1 was tested, and the Activity (Rattus norvegicus [1]) was -16%, the Activity (Rattus norvegicus [2]) was 7% and the Activity (Rattus norvegicus [4]) was -46%. It also gave an Activity (Rattus norvegicus [5]) of -7%.

CC(C)OC(=O)c1ccc(OCc2ccccc2)cc1 was tested, and the Activity (Rattus norvegicus [1]) was -4%, the Activity (Rattus norvegicus [2]) was 13% and the Activity (Rattus norvegicus [3]) was -5%. For the same molecule, the Activity (Rattus norvegicus [4]) was -40% and the Activity (Rattus norvegicus [5]) was -10%.

O=C(c1ccc(OCc2ccccc2)cc1)N1CCCCC1 gave an Activity (Rattus norvegicus [1]) of -67%, an Activity (Rattus norvegicus [2]) of 2% and an Activity (Rattus norvegicus [4]) of 10%. For the same molecule, the Activity (Rattus norvegicus [5]) was 14%.

CCOC(=O)c1ccc(OCc2ccc(Cl)cc2Cl)cc1 showed an Activity (Rattus norvegicus [1]) of -15%, an Activity (Rattus norvegicus [2]) of -2% and an Activity (Rattus norvegicus [3]) of 8%. For the same molecule, the Activity (Rattus norvegicus [4]) was -42% and the Activity (Rattus norvegicus [5]) was -18%.

CCCCCCCCCCCCOC(=O)c1ccc(OCc2ccccc2)cc1 was tested, and the Activity (Rattus norvegicus [1]) was -3%, the Activity (Rattus norvegicus [2]) was 6% and the Activity (Rattus norvegicus [4]) was -57%. It also gave an Activity (Rattus norvegicus [5]) of -11%.

For O=C(O)c1ccc(OCc2ccc(Cl)c(Cl)c2)cc1, the Activity (Rattus norvegicus [1]) was 7%, the Activity (Rattus norvegicus [2]) was 18% and the Activity (Rattus norvegicus [4]) was -20%. For the same molecule, the Activity (Rattus norvegicus [5]) was -9%.

Cc1ccc(OCc2ccccc2)cc1C gave an Activity (Rattus norvegicus [1]) of 24%, an Activity (Rattus norvegicus [2]) of 13% and an Activity (Rattus norvegicus [4]) of -62%. The Activity (Rattus norvegicus [5]) was -3%.

O=C(Oc1ccccc1)c1ccc(OCc2ccccc2)cc1 showed an Activity (Rattus norvegicus [1]) of -1%, an Activity (Rattus norvegicus [2]) of 0% and an Activity (Rattus norvegicus [4]) of -18%. The Activity (Rattus norvegicus [5]) was 0%.

With CCCCCCOC(=O)c1ccc(OCc2ccccc2)cc1 the Activity (Rattus norvegicus [1]) was -3%, the Activity (Rattus norvegicus [2]) was 8% and the Activity (Rattus norvegicus [4]) was -64%. It also gave an Activity (Rattus norvegicus [5]) of -9%.

Molecule COc1cc(C=O)ccc1OCc1ccccc1 has an Activity (Rattus norvegicus [1]) of -16%, an Activity (Rattus norvegicus [2]) of 0% and an Activity (Rattus norvegicus [3]) of 1%. For the same molecule, the Activity (Rattus norvegicus [4]) was -18% and the Activity (Rattus norvegicus [5]) was -23%.
